Laboratory results as given in patent US9388171B2, “Serine/threonine kinase inhibitors” (Array BioPharma Inc., priority 2012, dated 2016).
Like-named read-outs stand apart in the source and are kept apart here.

What was measured:
[1] = target: human ERK-2 (Mitogen Activated Kinase 1) (Homo sapiens (Human), UniProt P28482); assay: ERK-2 Enzymatic Assay; type: biochemical
Protocol: Compounds were tested in an enzymatic assay using human ERK-2 (Mitogen Activated Kinase 1), recombinantly expressed as an n-terminal 6-His fusion protein in E. coli and corresponding to a 8-360. The substrate used was the fluorescent Omnia peptide S/T17 (Invitrogen of Carlsbad, Calif.; Cat. KNZ1171C). Test compounds were diluted in DMSO in 3-fold serial dilutions at 100× final concentrations. […] The assay was run at ambient temperature in a white 384-well polypropylene plate (Nunc, Inc of Naperville, Ill.; Cat. 267462) collecting data every 50 seconds for approximately 30 minutes on an Envision plate reader (PerkinElmer, Inc. of Waltham, Mass.); Excitation 340 nm/Emission 495 nm. The data collected from each well was fit to a straight line, and the resulting rates were used to calculate percent of control. Percent of control was plotted against compound concentration, and IC50 values were determined using a four-parameter fit. Representative data is in TABLE 3 (infra).

[2] = test system: PMA-stimulated P90RSK(Ser380) phosphorylation in HepG2 cells; assay: Cellular P90RSK(Ser380) Phosphorylation Assay; type: cell-based; conditions: Homo sapiens, 1.5 hour compound incubation, PMA 100 ng/mL
Protocol: Cellular P90RSK(Ser380) Phosphorylation Assay
Inhibition of PMA-stimulated P90RSK(Ser380) phosphorylation was determined by the following in vitro cellular mechanistic assay, which comprises incubating cells with a compound for 1.5 hours and quantifying fluorescent pP90RSK(Ser380) signal on fixed cells and normalizing to GAPDH signal.
Materials and Methods: HepG2 cells were obtained from ATCC and grown in DMEM supplemented with 10% fetal bovine serum. Cells were plated in 96-well plates at 35,000 cells/well and allowed to attach overnight at 37° C./5% CO2. Diluted compounds were then added at a final concentration of 0.5% DMSO. After 1.5 hour compound incubation, cells were stimulated with the addition of PMA (phorbol 12-myristate 13-acetate) at a final concentration of 100 ng/mL; the PMA stimulation was a 30-minute incubation at 37° C./5% CO2. After the 30-minute PMA stimulation, cells were washed with PBS and fixed in 3.7% formaldehyde in PBS at room temperature for 15-20 minutes. This was followed by another wash in PBS and then permeabilization in 100% MeOH at room temperature for 10-15 minutes. Following the permeabilization incubation, cells were washed in PBS/0.05% Tween-20, followed by a block in Odyssey blocking buffer (LI-COR Biosciences) for at least 1 hour. […] Both secondary antibodies were used at a 1:1000 dilution. Cells were then washed and analyzed for fluorescence at both wavelengths using the Odyssey Infrared Imaging System (LI-COR Biosciences). Phosphorylated P90RSK(Ser380) signal was normalized to GAPDH signal.

[3] = 25 uM ATP, Omnia peptide S/T17, read-out: Erk Enzymatic Assay IC50

human ERK-2 (Mitogen Activated Kinase 1), sequence (P28482 8-360): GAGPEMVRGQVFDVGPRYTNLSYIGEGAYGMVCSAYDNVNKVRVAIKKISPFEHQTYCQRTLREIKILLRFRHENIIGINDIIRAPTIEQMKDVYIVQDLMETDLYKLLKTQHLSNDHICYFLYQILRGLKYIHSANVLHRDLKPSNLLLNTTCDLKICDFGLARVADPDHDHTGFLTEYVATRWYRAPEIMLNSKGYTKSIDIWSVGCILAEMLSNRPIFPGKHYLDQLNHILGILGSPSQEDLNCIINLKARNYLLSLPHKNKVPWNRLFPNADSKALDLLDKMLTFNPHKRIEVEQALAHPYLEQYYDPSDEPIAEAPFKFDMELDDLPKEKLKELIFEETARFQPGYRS

| Compound | IC50 [1, 3] | IC50 [2] | IC50 ([1]; read-out: ERK IC50) |
| --- | --- | --- | --- |
| COc1ccc([C@H](NC(=O)c2ccc3cnc(NC4CCOCC4)cc3n2)c2cnn(C)c2)cc1F [I-21, (S)—N-((3-Fluoro-4-methoxyphenyl)(1-methyl-1H-pyrazol-4-yl)methyl)-7-(tetrahydro-2H-pyran-4-ylamino)-1,6-naphthyridine-2-carboxamide] | 1.86 nM | 18.7 nM |  |
| CC[C@@H](NC(=O)c1ccc2cnc(NC3CCOCC3)cc2n1)c1ccc(OC)c(F)c1 [I-6, 7-(Tetrahydro-pyran-4-ylamino)-[1,6]naphthyridine-2-carboxylic acid [(R)-1-(3-fluoro-4-methoxy-phenyl)-propyl]-amide] | 2.1 nM | 5.96 nM |  |
| COc1ccc([C@H](NC(=O)c2ccc3cnc(N[C@@H](C)CO)cc3n2)c2cnn(C)c2)cc1F [I-24, N—((S)-(3-Fluoro-4-methoxyphenyl)(1-methyl-1H-pyrazol-4-yl)methyl)-7-((S)-1-hydroxypropan-2-ylamino)-1,6-naphthyridine-2-carboxamide] | 1.15 nM | 37.8 nM |  |
| COc1ccc([C@H](NC(=O)c2ccc3cnc(N[C@H]4CCOC4)cc3n2)c2cnn(C)c2)cc1F (single isomer, unassigned) [I-52] |  |  | 1.27 nM |
| O=C(NCc1ccc(Cl)c(F)c1)c1ccc2cnc(NC3CCOCC3)cc2n1 [I-11, 7-(Tetrahydro-pyran-4-ylamino)-[1,6]naphthyridine-2-carboxylic acid 4-chloro-3-fluoro-benzylamide] | 3.43 nM | 98.9 nM |  |
| COc1ccc([C@H](NC(=O)c2ccc3cnc(N[C@@H]4CCOC4)cc3n2)c2cnn(C)c2)cc1F (single isomer, unassigned) [I-53] |  |  | 2.75 nM |
| O=C(NCCc1ccccc1)c1ccc2cnc(NC3CCOCC3)cc2n1 [I-30, 7-(Tetrahydro-pyran-4-ylamino)-[1,6]naphthyridine-2-carboxylic acid phenethyl-amide] | 5.95 nM | 476 nM |  |
| O=C(N[C@H](CO)c1ccc(Cl)c(F)c1)c1ccc2cnc(NC3CCOCC3)cc2n1 [I-5, 7-(Tetrahydro-pyran-4-ylamino)-[1,6]naphthyridine-2-carboxylic acid [(S)-1-(4-chloro-3-fluoro-phenyl)-2-hydroxy-ethyl]-amide] | 4.04 nM | 16.3 nM |  |
| Cn1nccc1Nc1cc2nc(C(=O)N[C@H](CO)c3ccc(Cl)c(F)c3)ccc2cn1 [I-8, 7-(2-Methyl-2H-pyrazol-3-ylamino)-[1,6]naphthyridine-2-carboxylic acid [(S)-1-(4-chloro-3-fluoro-phenyl)-2-hydroxy-ethyl]-amide] |  | 9.84 nM |  |

More lines, now with the values ahead:

| IC50 [1, 3] | IC50 [2] | IC50 ([1]; read-out: ERK IC50) | Compound |
| --- | --- | --- | --- |
| 2.68 nM | 5.47 nM |  | COc1ccc([C@@H]2CN(C)C[C@H]2NC(=O)c2ccc3cnc(Nc4cc(C)nn4C)cc3c2)cc1 [II-64, 3-((1,3-dimethyl-1H-pyrazol-5-yl)amino)-N-((3S,4R)-4-(4-methoxyphenyl)-1-methylpyrrolidin-3-yl)isoquinoline-6-carboxamide] |
| 20.2 nM | 65.1 nM |  | C[C@@H](CO)Nc1cc2cc(C(=O)NCc3cc4c(F)cccc4[nH]3)ccc2cn1 [II-23, 3-((S)-2-Hydroxy-1-methyl-ethylamino)-isoquinoline-6-carboxylic acid (4-fluoro-1H-indol-2-ylmethyl)-amide] |
| 2.8 nM | 14.8 nM |  | O=C(N[C@H](CO)c1ccc(Cl)c(F)c1)c1ccc2cnc(NC3CCOCC3)cc2c1 [II-12, 3-(Tetrahydro-pyran-4-ylamino)-isoquinoline-6-carboxylic acid [(S)-1-(4-chloro-3-fluoro-phenyl)-2-hydroxy-ethyl]-amide] |
| 2.29 nM | 9.97 nM |  | Cn1cc([C@@H](NC(=O)c2ccc3cnc(Nc4ccnn4C)cc3c2)c2ccc(Cl)c(F)c2)cn1 [II-15, (S)—N-((4-Chloro-3-fluorophenyl)(1-methyl-1H-pyrazol-4-yl)methyl)-3-(1-methyl-1H-pyrazol-5-ylamino)isoquinoline-6-carboxamide] |
| 2.5 nM | 8.5 nM |  | CC[C@@H](NC(=O)c1ccc2cnc(NC3CCOCC3)cc2c1)c1ccc(Cl)c(F)c1 [II-2, 3-(Tetrahydro-pyran-4-ylamino)-isoquinoline-6-carboxylic acid [(R)-1-(4-chloro-3-fluoro-phenyl)-propyl]-amide] |
| 4.6 nM | 30.4 nM |  | COc1ccc([C@H](NC(=O)c2ccc3cnc(Nc4cc(C)nn4C)cc3c2)c2cnn(C)c2)cc1F [II-37, (S)-3-(1,3-Dimethyl-1H-pyrazol-5-ylamino)-N-((3-fluoro-4-methoxyphenyl)(1-methyl-1H-pyrazol-4-yl)methyl)isoquinoline-6-carboxamide] |
| 6.5 nM | 15.7 nM |  | CC[C@@H](NC(=O)c1ccc2cnc(Nc3cc(C)nn3C)cc2c1)c1ccc(Cl)c(F)c1 [II-46, (R)—N-(1-(4-Chloro-3-fluorophenyl)propyl)-3-(1,3-dimethyl-1H-pyrazol-5-ylamino)isoquinoline-6-carboxamide] |
